Among the test systems are HS 578T breast; BT-549 breast; RXF 393 renal.
What all share (experiment): NCI anticancer screen, dose series, 48 h

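These data come from cells grown in 96-well plates and exposed to compound for 48 hours at five concentrations. Abbreviation: GI50, concentration required for 50% inhibition of growth. Definition used: TGI = concentration required for complete inhibition of growth.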 Where only a bound is given, the exact number is not on record here.

`CN(C)CCNC(=O)Cn1ccc(=O)c2c([N+](=O)[O-])cccc21`: the TGI in the test on HS 578T breast, in the test on BT-549 breast and with RXF 393 renal was over 100 µM throughout.

Regarding `O=C(N[C@@H](C[Se][Se]C[C@H](NC(=O)c1ccc(Br)cc1F)C(=O)O)C(=O)O)c1ccc(Br)cc1F`, the GI50 with HS 578T breast, with BT-549 breast and with RXF 393 renal was over 100 µM throughout. The TGI in the test with HS 578T breast, with BT-549 breast and with RXF 393 renal was over 100 µM in each case.

For `CC(=O)c1ccc(O)c(CN(C2CCCCC2)C2CCCCC2)c1O`, the TGI with HS 578T breast, with BT-549 breast and in the test with RXF 393 renal was over 100 µM throughout.

As to `O=c1oc2ccc(I)cc2c(=O)n1-c1ccc(Cl)cc1F`, the figures for the GI50 with HS 578T breast, with BT-549 breast and in the test on RXF 393 renal were 0.688 µM, 1.03 µM and 1.44 µM, respectively. Further, the figures for the TGI in the test on HS 578T breast, with BT-549 breast and with RXF 393 renal were 8.66 µM, 3.8 µM and 5.32 µM, respectively.

For `N#CNC(N)=Nc1ccc(Cl)cc1`, the TGI with HS 578T breast, in the test with BT-549 breast and in the test with RXF 393 renal was over 100 µM throughout.

On to `CN1/C(=C\C=C\C2=[N+](C)c3ccccc3C2(C)C)C(C)(C)c2ccccc21`, for which the figures for the GI50 with HS 578T breast, in the test on BT-549 breast and in the test on RXF 393 renal were 0.216 µM, 0.0903 µM and 0.216 µM, respectively. Also, the TGI turned out to be 4.45 µM in the test on HS 578T breast, 1.64 µM in the test with BT-549 breast and 1.13 µM with RXF 393 renal.

On to `Cn1cc(C2=C(c3cn(C4CCN(Cc5ccccn5)CC4)c4ccccc34)C(=O)NC2=O)c2ccccc21`, for which the GI50 with HS 578T breast was 3.75 µM; in the test with BT-549 breast it was 7.56 µM; in the test on RXF 393 renal it was 2.59 µM. The TGI is over 72.1 µM in the test with HS 578T breast, over 100 µM in the test on BT-549 breast and 25.3 µM with RXF 393 renal.

As to `CC(=O)/C(=C/c1ccccc1F)C(=O)c1ccccc1`, the TGI is over 100 µM in the test with HS 578T breast, over 100 µM with BT-549 breast and 46 µM in the test with RXF 393 renal.

For the molecule `COc1cc(NCCCCCCCNC(C)C)c2nccc(C)c2c1`, the GI50 with HS 578T breast is 17.4 µM; in the test on BT-549 breast it was 17.7 µM; in the test with RXF 393 renal, 15.4 µM. Besides, the results for the TGI in the test on HS 578T breast, in the test with BT-549 breast and in the test on RXF 393 renal were 39.7 µM, 33.5 µM and 33.7 µM, respectively.

Take `CC(=O)OC(Cn1cncn1)(Cn1cncn1)c1ccc(Cl)cc1Cl`: the TGI with HS 578T breast, with BT-549 breast and in the test with RXF 393 renal was over 100 µM in each case.

As to `COC(=O)C1(C)Cc2cc(OC(C)=O)c(OC(C)=O)cc2N1` (stereo unspecified), the TGI is over 24.1 µM in the test with HS 578T breast, 22 µM in the test on BT-549 breast and 8.48 µM in the test with RXF 393 renal. For the same molecule, the GI50 is 4.93 µM with BT-549 breast and 2.34 µM in the test on RXF 393 renal.

Regarding `CC1(C)CC2C(=O)c3ccccc3NC2c2ccccc21` (stereo unspecified), the figures for the TGI in the test on HS 578T breast, in the test on BT-549 breast and with RXF 393 renal were 6.99 µM, over 100 µM and 8.58 µM, respectively.

For `CN(C)C(=O)O[C@H]1CN[C@H](C#Cc2cc3ncnc(Nc4ccc(OCc5cccc(F)c5)c(Cl)c4)c3s2)C1`, the GI50 was 10.4 µM in the test on HS 578T breast, 4 µM in the test on BT-549 breast and 5.48 µM with RXF 393 renal. In addition, the TGI in the test with HS 578T breast is over 25 µM; in the test with BT-549 breast, 10.2 µM; with RXF 393 renal, over 25 µM.

Regarding `C=C1C(=O)O[C@H]2[C@H]1CC/C(COC(=O)NCC(C)c1ccc(CC(C)C)cc1)=C\CC[C@@]1(C)O[C@@H]21` (stereo partly specified), the GI50 in the test with HS 578T breast is 1.53 µM; in the test on BT-549 breast, 0.775 µM; in the test on RXF 393 renal, 0.559 µM. Also, the TGI came to 15 µM with HS 578T breast, 2.25 µM with BT-549 breast and 1.17 µM with RXF 393 renal.

On to `CC(C)(C)OC(=O)NCCCCCCCn1c2c(c3ccccc3c1=O)C(=O)c1ccccc1-2`, for which the values for the GI50 with HS 578T breast, in the test with BT-549 breast and with RXF 393 renal were 17.4 µM, 22.4 µM and 16.2 µM, respectively. Besides, the TGI in the test on HS 578T breast came to 49.5 µM; in the test with BT-549 breast, 46.6 µM; with RXF 393 renal, 43.5 µM.

With `O=C1CCCCN1CCCCC#Cc1cccc(C#Cc2cccnc2)c1`, in the test on HS 578T breast, the GI50 is 28.5 µM and the TGI is over 100 µM. Besides, in the test on BT-549 breast, the GI50 was 18.6 µM and the TGI is 74.7 µM.

In the case of `Cc1ccc(NC(=O)c2cc(S(=O)(=O)N3C(=O)NC(=O)NS3(=O)=O)c(S)cc2Cl)cc1`, the figures for the GI50 in the test on HS 578T breast, with BT-549 breast and in the test with RXF 393 renal were 29.4 µM, 24.2 µM and 11.5 µM, respectively. The TGI with HS 578T breast amounted to 95.8 µM; with BT-549 breast, 63.9 µM; with RXF 393 renal it was 54.5 µM.

For the molecule `O=c1cc(/C=C/c2ccccc2)[nH]c2cc3c(cc12)OCO3`, the results for the TGI in the test on HS 578T breast, in the test on BT-549 breast and with RXF 393 renal were 8.75 µM, 22 µM and 22 µM, respectively. In addition, in the test with RXF 393 renal, the GI50 is 4.27 µM.

Consider `CCN(C(=O)/C=C/c1ccco1)c1ccccc1`, for which the TGI in the test on HS 578T breast, in the test on BT-549 breast and in the test on RXF 393 renal was over 100 µM in each case.

On to `CCCCCCCCCCCCCCCC[N+]1(C)CCOCC1`, for which the results for the GI50 in the test on HS 578T breast and in the test with BT-549 breast were 2.23 µM and 2.2 µM, respectively. Further, the TGI was 8.44 µM in the test on HS 578T breast and 4.7 µM with BT-549 breast.

For `Cc1ccc(-c2nc3nc(-c4ccc(F)cc4)nc(N4CCCNCC4)c3o2)cc1`, the GI50 with HS 578T breast is 1.78 µM; in the test with BT-549 breast it was 1.66 µM; with RXF 393 renal, 1.59 µM. Besides, the results for the TGI with HS 578T breast, in the test on BT-549 breast and with RXF 393 renal were 3.69 µM, 3.37 µM and 3.11 µM, respectively.

As for `CC(NC(=O)N(C)C)NC(=O)N(C)C`, the TGI in the test on HS 578T breast and in the test with RXF 393 renal was over 10 µM in each case.

`C=C1C[C@@H]2CC[C@@]34C[C@H]5O[C@H]6[C@@H](O3)[C@H]3O[C@H](CC[C@@H]3O[C@H]6[C@@H]5O4)CC(=O)C[C@@H]3[C@@H](OC)[C@@H](C[C@H](O)CN)O[C@H]3C[C@H]3O[C@@H](CC[C@@H]1O2)C[C@@H](C)C3=C`: the results for the GI50 in the test with HS 578T breast, in the test on BT-549 breast and in the test with RXF 393 renal were under 0.01 µM, under 0.0167 µM and under 0.01 µM, respectively. Besides, the values for the TGI with HS 578T breast, with BT-549 breast and in the test with RXF 393 renal were over 100 µM, over 37.5 µM and over 100 µM, respectively.

The record behind these values is PubChem BioAssay (NCI).
